Measured values: patent publication US20230129438A1, “IMMUNOMODULATING IMINE-OXAZOLINE AZALIDES” (Zoetis Services LLC, priority 2020, published 2023)

Assays:
S. aureus = experiment: In-vitro MIC model, S. aureus; settings: S. aureus ATCC 29213
E. coli = experiment: In-vitro MIC model, E. coli
P. multocida = experiment: In-vitro MIC model, P. multocida; format: cell-based
M. haemolytica = experiment: In-vitro MIC model, M. haemolytica; format: cell-based
TNF-α = experiment: Bovine whole blood assay, LPS-induced TNF-α; format: cell-based; settings: LPS 1 μg/mL
Protocol: (§1) (protected from light) for 30 minutes.

P. multocida 46572 = experiment: In vivo mouse lung infection challenge model (murine efficacy model); settings: for % Survival: 20 mg/kg subcutaneous, CD-1 mice, intranasal challenge, to Day 10, approximate (~%), harmonized relative to vehicle and M9
IL-1β = experiment: Bovine whole blood assay, IL-1β; format: cell-based; settings: drug concentration giving overstimulation of IL-1β over LPS (cellular toxicity signal)
Protocol: as §1

IL-6 = experiment: Bovine whole blood assay, LPS-induced IL-6; format: cell-based; settings: LPS 1 μg/mL

| SMILES | MIC (S. aureus) [mg/L] | MIC (E. coli; E. coli ATCC 25922) [mg/L] | MIC (E. coli; E. coli W3110) [mg/L] | MIC (P. multocida; P. multocida 46572, murine efficacy challenge strain) [mg/L] | MIC (P. multocida; P. multocida ATCC 43137) [mg/L] | MIC (M. haemolytica; M. haemolytica 12726) [mg/L] | MIC (M. haemolytica; M. haemolytica 46571, bovine efficacy challenge strain) [mg/L] | MIC (M. haemolytica; M. haemolytica ATCC 33396) [mg/L] | IC50 (TNF-α) [µM] | % Survival (P. multocida 46572) [%] | clinical efficacy, in words (P. multocida 46572; P. multocida infection in mice) | IL-Iβ OS of LPS (IL-1β) [µM] | IC50 (IL-6) [µM] |
| --- | --- | --- | --- | --- | --- | --- | --- | --- | --- | --- | --- | --- | --- |
| CC[C@H]1OC(=O)[C@H](C)[C@@H](O[C@H]2C[C@@](C)(OC)[C@](O)(CNCCOC)[C@H](C)O2)[C@H](C)[C@@H](O[C@@H]2O[C@H](C)C[C@H]3[C@H]2OC(=Nc2ccc(OC)cc2)N3C)[C@](C)(O)C[C@@H](C)CN[C@H](C)[C@@H](O)[C@]1(C)O (mixture of isomers) [Example A-13, (E/Z)-(2R,3S,4R,5R,8R,10R,11R,12S,13S,14R)-2-ethyl-3,4,10-trihydroxy-13-(((2R,4R,5S,6S)-5-hydroxy-4-methoxy-5-(((2-methoxyethyl)amino)methyl)-4,6-dimethyltetrahydro-2H-pyran-2-yl)oxy)-11-(((3aR,4S,6R,7aS)-2-((4-methoxyphenyl)imino)-1,6-dimethylhexahydro-2H-pyrano[4,3-d]oxazol-4-yl)oxy)-3,5,8,10,12,14-hexamethyl-1-oxa-6-azacyclopentadecan-15-one] | >64 | >64 | >64 | >64 | >64 | >64 | >64 | >64 | 5 | 37 | clinically efficacious | 32 | – |
| CC[C@H]1OC(=O)[C@H](C)[C@@H](O[C@H]2C[C@@](C)(OC)[C@](O)(CNCC3CC3)[C@H](C)O2)[C@H](C)[C@@H](O[C@@H]2O[C@H](C)C[C@H]3[C@H]2OC(=Nc2ccc(OC)nc2)N3C)[C@](C)(O)C[C@@H](C)CN[C@H](C)[C@@H](O)[C@]1(C)O (mixture of isomers) [Example A-25, (E/Z)-(2R,3S,4R,5R,8R,10R,11R,12S,13S,14R)-13-(((2R,4R,5S,6S)-5-(((cyclopropylmethyl)amino)methyl)-5-hydroxy-4-methoxy-4,6-dimethyltetrahydro-2H-pyran-2-yl)oxy)-2-ethyl-3,4,10-trihydroxy-11-(((3aR,4S,6R,7aS)-2-((6-methoxypyridin-3-yl)imino)-1,6-dimethylhexahydro-2H-pyrano[4,3-d]oxazol-4-yl)oxy)-3,5,8,10,12,14-hexamethyl-1-oxa-6-azacyclopentadecan-15-one] | – | – | – | – | – | – | – | – | 2.5 | 26 | – | 16 | 4 |
| CCCNC[C@]1(O)[C@H](C)O[C@@H](O[C@H]2[C@H](C)[C@@H](O[C@@H]3O[C@H](C)C[C@H]4[C@H]3OC(=Nc3ccccc3)N4C)[C@](C)(O)C[C@@H](C)CN(C)[C@H](C)[C@@H](O)[C@](C)(O)[C@@H](CC)OC(=O)[C@@H]2C)C[C@@]1(C)OC (mixture of isomers) [Example A-31, (E/Z)-(2R,3S,4R,5R,8R,10R,11R,12S,13S,14R)-11-(((3aR,4S,6R,7aS)-1,6-dimethyl-2-(phenylimino)hexahydro-2H-pyrano[4,3-d]oxazol-4-yl)oxy)-2-ethyl-3,4,10-trihydroxy-13-(((2R,4R,5S,6S)-5-hydroxy-4-methoxy-4,6-dimethyl-5-((propylamino)methyl)tetrahydro-2H-pyran-2-yl)oxy)-3,5,6,8,10,12,14-heptamethyl-1-oxa-6-azacyclopentadecan-15-one] | – | – | – | – | – | – | – | – | 7 | – | – | >250 | 10 |
| CCCNC[C@]1(O)[C@H](C)O[C@@H](O[C@H]2[C@H](C)[C@@H](O[C@@H]3O[C@H](C)C[C@H]4[C@H]3OC(=Nc3ccccc3)N4CC(C)C)[C@](C)(O)C[C@@H](C)CN[C@H](C)[C@@H](O)[C@](C)(O)[C@@H](CC)OC(=O)[C@@H]2C)C[C@@]1(C)OC (mixture of isomers) [Example A-32, (E/Z)-(2R,3S,4R,5R,8R,10R,11R,12S,13S,14R)-2-ethyl-3,4,10-trihydroxy-13-(((2R,4R,5S,6S)-5-hydroxy-4-methoxy-4,6-dimethyl-5-((propylamino)methyl)tetrahydro-2H-pyran-2-yl)oxy)-11-(((3aR,4S,6R,7aS)-1-isobutyl-6-methyl-2-(phenylimino)hexahydro-2H-pyrano[4,3-d]oxazol-4-yl)oxy)-3,5,8,10,12,14-hexamethyl-1-oxa-6-azacyclopentadecan-15-one] | – | – | – | – | – | – | – | – | 5 | – | – | 2 | 2 |
